# Test results from patent US10517889B2, “Modulators of SMAD7 expression” (Ionis Pharmaceuticals, Inc., priority 2017, dated 2019).
# Strand notation (5' to 3'): a small letter for the sugar, then the base; units joined by * are phosphorothioate-linked, units joined directly phosphodiester-linked; [ ] holds rarer units or linkages, { } end groups; capitals alone tell only the bases. k = constrained ethyl (cEt); [5mC] = 5-methylcytosine; d = 2'-deoxy (DNA)
# Tested on: human SMAD7 mRNA
# Assay: Antisense inhibition of human SMAD7 mRNA expression in Hep3B cells by 3-10-3 cEt gapmers, 10,000 nM, electroporation (Example 2)
# Type: cell-based
# Conditions: Hep3B cells, 10,000 nM antisense oligonucleotide, electroporation, approximately 24 hours, RT-PCR primer probe set RTS5062, relative to untreated control cells
# Outline: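 qRT-PCR (RTS5062) of SMAD7 mRNA, normalised to RIBOGREEN total RNA, gave percent inhibition relative to untreated controls. Hep3B cells at 20,000 per well received 10,000 nM oligonucleotide by electroporation, with ~24 h treatment.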
row,Substance,% Inhibition [%]
1,799891 (antisense kA*kT*k[5mC]*dA*dT*dT*dA*dA*dG*d[5mC]*d[5mC]*dA*dA*kT*kT*kT) [compound 799891],0
2,799976 (kT*k[5mC]*kA*dA*dA*dG*dG*dT*dT*dA*dA*d[5mC]*dA*kG*k[5mC]*kA; antisense) [compound 799976],34
3,800057 (antisense kT*kT*k[5mC]*dA*d[5mC]*dT*dT*dG*dT*dT*dT*d[5mC]*dT*kG*k[5mC]*kA) [compound 800057],46

# Same assay, conditions: Hep3B cells, electroporation with 10,000 nM antisense oligonucleotide, approximately 24 hours, RTS5062, percent inhibition of SMAD7 mRNA relative to untreated control cells
row,Substance,% Inhibition [%]
1,799514 (antisense kT*k[5mC]*kG*dG*dA*dG*dT*dT*dT*d[5mC]*d[5mC]*dT*d[5mC]*kA*k[5mC]*kT) [compound 799514],40

# Same assay, conditions: Hep3B cells, electroporation with 10,000 nM antisense oligonucleotide, approximately 24 hours, SMAD7 mRNA by RT-PCR (RTS5062), relative to untreated control cells
row,Substance,% Inhibition [%]
1,800040 (k[5mC]*kG*k[5mC]*d[5mC]*dA*dG*d[5mC]*dA*dA*dT*dG*dT*dG*k[5mC]*kT*kG; antisense) [compound 800040],15
2,800101 (antisense kA*kA*k[5mC]*dA*dA*dA*dG*d[5mC]*d[5mC]*dT*d[5mC]*dT*dT*k[5mC]*kT*k[5mC]) [compound 800101],0
3,798717 (antisense kA*kG*k[5mC]*d[5mC]*d[5mC]*dT*dG*d[5mC]*d[5mC]*d[5mC]*dG*dG*dG*k[5mC]*k[5mC]*kG) [compound 798717],18
4,798849 (k[5mC]*kA*kG*d[5mC]*d[5mC]*dG*dA*dT*dT*dT*dT*dG*d[5mC]*kT*k[5mC]*k[5mC]; antisense) [compound 798849],21
5,830136 (antisense kG*kA*kA*dA*dG*dT*dA*d[5mC]*dA*dA*dT*d[5mC]*dT*k[5mC]*k[5mC]*kT) [compound 830136],64
6,799392 (antisense kT*kA*kT*dT*dA*dG*dA*d[5mC]*d[5mC]*dG*dG*d[5mC]*dA*k[5mC]*k[5mC]*kA) [compound 799392],46
7,830173 (antisense kA*kG*kA*dG*dG*dT*dG*dT*dT*dT*d[5mC]*d[5mC]*dA*kA*kG*kG) [compound 830173],48
8,830048 (kT*kT*kT*d[5mC]*d[5mC]*dG*dA*dT*dT*dG*dG*d[5mC]*dA*kG*kG*kT; antisense) [compound 830048],57
9,799468 (antisense kT*k[5mC]*kA*d[5mC]*d[5mC]*dT*dT*dA*dG*dG*d[5mC]*d[5mC]*dT*kG*kT*kG) [compound 799468],22
10,799411 (antisense kT*kG*kG*dA*dG*dA*dA*d[5mC]*dT*dT*dT*dT*d[5mC]*kT*k[5mC]*k[5mC]) [compound 799411],0
11,830054 (kT*kG*kG*dG*dT*dG*dA*dG*dT*dA*dA*d[5mC]*d[5mC]*kA*kG*k[5mC]; antisense) [compound 830054],48
12,830140 (antisense kT*k[5mC]*k[5mC]*dT*dA*dA*dG*d[5mC]*dT*dA*d[5mC]*dT*dT*kG*kG*kT) [compound 830140],12
13,772565 (antisense kA*kA*kT*dG*d[5mC]*d[5mC]*dT*dG*dA*dG*dA*dT*d[5mC]*k[5mC]*kG*kG) [compound 772565],64

# Same assay, conditions: Hep3B cells, electroporation with 10,000 nM antisense oligonucleotide, approximately 24 hours, primer probe set RTS5062, relative to untreated control cells
Substance,% inhibition of SMAD7 mRNA expression [%],% Inhibition [%]
799165 (antisense kG*kT*kG*dT*d[5mC]*dG*dA*dA*dG*dT*dA*dT*d[5mC]*kA*kT*kA) [compound 799165],42,–
799055 (antisense kG*k[5mC]*kT*d[5mC]*dA*dG*dA*dA*dG*d[5mC]*d[5mC]*dT*dG*kT*kG*kG) [compound 799055],–,19
799163 (antisense kA*kA*kG*dT*dA*dT*d[5mC]*dA*dT*dA*d[5mC]*dG*dA*kG*kT*kG) [compound 799163],45,–
799196 (antisense kG*k[5mC]*kA*d[5mC]*dT*dA*d[5mC]*dA*dA*dT*dG*d[5mC]*dT*kA*kA*kA) [compound 799196],–,47
799193 (antisense kT*kA*kA*dA*dT*dT*dT*d[5mC]*d[5mC]*dA*dA*dT*dG*kA*kG*kA) [compound 799193],–,43
799110 (antisense kA*kG*kG*d[5mC]*dA*dG*dT*dG*d[5mC]*dT*dG*dA*dG*k[5mC]*kT*kG) [compound 799110],33,–
798745 (antisense kG*k[5mC]*kA*dG*d[5mC]*dT*d[5mC]*d[5mC]*dA*dG*d[5mC]*dT*dG*k[5mC]*k[5mC]*kG) [compound 798745],0,–
798938 (antisense kA*k[5mC]*k[5mC]*dA*dA*dA*dG*dA*dG*dT*dT*dT*dG*k[5mC]*kA*kT) [compound 798938],–,15
798948 (antisense kG*k[5mC]*kG*dA*dA*dA*d[5mC]*dA*dA*dA*dA*d[5mC]*dA*kG*kA*kA) [compound 798948],56,–

# Same assay, conditions: Hep3B cells, electroporation, 10,000 nM antisense oligonucleotide, approximately 24 hours, RTS5062, relative to untreated control cells
row,Substance,% inhibition of SMAD7 mRNA expression [%]
1,799555 (kT*kA*k[5mC]*d[5mC]*d[5mC]*d[5mC]*dG*dT*dG*d[5mC]*d[5mC]*dT*dG*kT*k[5mC]*kA; antisense) [compound 799555],51
2,799601 (kG*kA*kA*dT*dA*d[5mC]*dA*d[5mC]*dT*dG*d[5mC]*dA*d[5mC]*k[5mC]*kA*kA; antisense) [compound 799601],48
3,799701 (antisense k[5mC]*kT*kA*d[5mC]*dA*dG*dT*dT*d[5mC]*d[5mC]*dA*dG*dA*kA*k[5mC]*kA) [compound 799701],46
4,799539 (k[5mC]*k[5mC]*k[5mC]*dG*dT*d[5mC]*d[5mC]*dA*d[5mC]*dG*dG*dA*dA*k[5mC]*kG*kG; antisense) [compound 799539],41
5,799812 (antisense k[5mC]*kA*kG*dA*d[5mC]*dA*dG*d[5mC]*dT*dA*dA*dT*d[5mC]*kT*kG*k[5mC]) [compound 799812],39
6,790710 (kG*kG*kG*dA*dA*dA*dT*dG*dT*dT*d[5mC]*dT*dA*k[5mC]*k[5mC]*kT; antisense) [compound 790710],15

# Same assay, conditions: Hep3B cells, electroporation, 10,000 nM, approximately 24 hours; 3-10-3 cEt gapmers targeting SEQ ID NO: 3 and 4
row,Substance,% inhibition of SMAD7 mRNA expression [%]
1,829941 (k[5mC]*kA*kG*dT*d[5mC]*dA*dG*dT*dT*dG*dG*dT*dT*kT*kG*kA; antisense) [compound 829941],8

# Same assay, conditions: SMAD7 mRNA, Hep3B cells, 10,000 nM antisense oligonucleotide, electroporation, approximately 24 hours, primer probe set RTS5062, relative to untreated control cells
row,Substance,% Inhibition [%]
1,772715 (kA*kG*k[5mC]*dT*dA*dG*dG*dT*dG*dA*dT*dA*dA*k[5mC]*kA*k[5mC]; antisense) [compound 772715],0
2,829771 (antisense kG*k[5mC]*kA*dG*dT*d[5mC]*d[5mC]*dA*dG*dG*d[5mC]*dG*dG*k[5mC]*k[5mC]*kG) [compound 829771],22
3,772734 (kA*kG*kG*d[5mC]*dA*dG*dG*dG*d[5mC]*d[5mC]*dG*d[5mC]*dG*kA*kG*kG; antisense) [compound 772734],16
4,829723 (antisense kG*k[5mC]*kA*dT*dG*d[5mC]*dG*d[5mC]*d[5mC]*dA*dG*dT*d[5mC]*kT*k[5mC]*k[5mC]) [compound 829723],54
5,829740 (antisense k[5mC]*kT*kG*d[5mC]*dT*dA*dA*dG*dG*dA*dG*d[5mC]*dG*kA*kA*k[5mC]) [compound 829740],52
6,829738 (antisense kT*kA*kA*dG*dG*dA*dG*d[5mC]*dG*dA*dA*d[5mC]*dA*kT*kG*kA) [compound 829738],49
7,800768 (antisense kG*k[5mC]*kG*d[5mC]*dT*d[5mC]*d[5mC]*dG*dT*dG*dG*d[5mC]*dA*kT*kG*k[5mC]) [compound 800768],18
8,829785 (antisense kA*kT*kG*d[5mC]*d[5mC]*dT*dG*dA*dG*dA*dT*d[5mC]*d[5mC]*kG*kG*k[5mC]) [compound 829785],27

# Same assay, conditions: SMAD7 mRNA, Hep3B cells, electroporation with 10,000 nM antisense oligonucleotide, approximately 24 hours, primer probe set RTS5062, relative to untreated control cells
row,Substance,% Inhibition [%]
1,829844 (antisense k[5mC]*kG*kA*dA*dT*dT*dG*dA*dG*d[5mC]*dT*dG*dT*k[5mC]*k[5mC]*kG) [compound 829844],49
2,829857 (antisense kT*kG*k[5mC]*dA*d[5mC]*d[5mC]*dA*dG*d[5mC]*dT*dG*dA*d[5mC]*kT*k[5mC]*kT) [compound 829857],31
3,829876 (antisense k[5mC]*k[5mC]*kG*dG*dG*dT*dT*dG*dT*d[5mC]*d[5mC]*dA*dG*kT*kG*kT) [compound 829876],30
4,829953 (kG*kT*k[5mC]*dA*d[5mC]*d[5mC]*d[5mC]*dG*dT*d[5mC]*dT*dG*dG*kG*k[5mC]*kT; antisense) [compound 829953],34
5,829889 (antisense k[5mC]*kG*kT*d[5mC]*d[5mC]*dA*d[5mC]*dG*dG*d[5mC]*dT*dG*d[5mC]*kT*kG*k[5mC]) [compound 829889],48
6,829858 (antisense kT*kG*k[5mC]*dT*d[5mC]*d[5mC]*dG*d[5mC]*dA*d[5mC]*d[5mC]*dT*dT*k[5mC]*kT*kG) [compound 829858],59
7,829896 (antisense k[5mC]*kG*kG*dG*dT*dG*dT*dA*dG*d[5mC]*dA*d[5mC]*dT*kG*kG*k[5mC]) [compound 829896],44
8,829981 (kG*kT*kG*dA*dT*dT*dG*d[5mC]*d[5mC]*dT*dT*dG*dA*kT*kA*kT; antisense) [compound 829981],14
